Test results taken from ChEMBL document CHEMBL1201862, “PubChem BioAssay data set” (2004).
Calls of active or inactive are those of the source.

Columns and labels:
[1] = molecular target: T1, Cytochrome P450 1A2 (Homo sapiens, UniProt P05177);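 also: PubChem cytochrome P450 panel assay, CYP1A2 panel member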
T1 sequence (P05177 whole entry): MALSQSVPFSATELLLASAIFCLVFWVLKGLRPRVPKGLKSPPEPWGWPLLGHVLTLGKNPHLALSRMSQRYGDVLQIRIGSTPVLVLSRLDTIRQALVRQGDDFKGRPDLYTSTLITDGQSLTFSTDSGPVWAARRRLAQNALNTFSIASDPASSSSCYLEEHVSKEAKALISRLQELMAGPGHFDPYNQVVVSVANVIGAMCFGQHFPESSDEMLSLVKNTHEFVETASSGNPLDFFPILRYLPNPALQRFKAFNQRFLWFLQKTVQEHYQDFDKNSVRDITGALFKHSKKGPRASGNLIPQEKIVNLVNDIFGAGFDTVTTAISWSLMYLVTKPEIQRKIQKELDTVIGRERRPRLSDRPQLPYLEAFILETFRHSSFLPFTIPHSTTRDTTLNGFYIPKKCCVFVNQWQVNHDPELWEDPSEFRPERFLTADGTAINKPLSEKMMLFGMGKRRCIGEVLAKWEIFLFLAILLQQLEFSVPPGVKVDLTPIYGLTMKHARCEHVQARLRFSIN

[2] = molecular target: Cytochrome P450 2D6 (Homo sapiens, UniProt P10635);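 also: CYP2D6 member of a cytochrome P450 panel assay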
Cytochrome P450 2D6, sequence (P10635 whole entry): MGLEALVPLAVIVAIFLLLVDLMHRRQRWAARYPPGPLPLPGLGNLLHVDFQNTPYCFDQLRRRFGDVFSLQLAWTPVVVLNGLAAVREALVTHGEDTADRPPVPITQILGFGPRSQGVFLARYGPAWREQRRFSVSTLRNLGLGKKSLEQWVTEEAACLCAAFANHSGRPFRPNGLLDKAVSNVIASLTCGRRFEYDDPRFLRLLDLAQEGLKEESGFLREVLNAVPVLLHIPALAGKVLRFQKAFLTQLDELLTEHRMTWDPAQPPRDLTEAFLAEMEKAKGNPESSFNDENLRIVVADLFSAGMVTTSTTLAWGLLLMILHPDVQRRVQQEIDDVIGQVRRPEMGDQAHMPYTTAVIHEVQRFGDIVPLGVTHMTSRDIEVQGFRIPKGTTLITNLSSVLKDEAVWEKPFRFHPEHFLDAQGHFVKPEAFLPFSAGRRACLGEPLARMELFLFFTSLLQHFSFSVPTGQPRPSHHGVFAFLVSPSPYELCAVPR

[3] = tested on: Candida albicans; assay: growth inhibition of resistant C. albicans, dose response, CaCi-8, fluconazole, Alamar Blue, dry powder (AID 488807); format: functional, organism-based
[4] = molecular target: T2, Voltage-gated N-type calcium channel alpha-1B subunit/Amyloid beta A4 precursor protein-binding family A member 1 (Homo sapiens, UniProt Q00975+Q02410); format: protein assay
T2 sequence (Q00975 whole entry): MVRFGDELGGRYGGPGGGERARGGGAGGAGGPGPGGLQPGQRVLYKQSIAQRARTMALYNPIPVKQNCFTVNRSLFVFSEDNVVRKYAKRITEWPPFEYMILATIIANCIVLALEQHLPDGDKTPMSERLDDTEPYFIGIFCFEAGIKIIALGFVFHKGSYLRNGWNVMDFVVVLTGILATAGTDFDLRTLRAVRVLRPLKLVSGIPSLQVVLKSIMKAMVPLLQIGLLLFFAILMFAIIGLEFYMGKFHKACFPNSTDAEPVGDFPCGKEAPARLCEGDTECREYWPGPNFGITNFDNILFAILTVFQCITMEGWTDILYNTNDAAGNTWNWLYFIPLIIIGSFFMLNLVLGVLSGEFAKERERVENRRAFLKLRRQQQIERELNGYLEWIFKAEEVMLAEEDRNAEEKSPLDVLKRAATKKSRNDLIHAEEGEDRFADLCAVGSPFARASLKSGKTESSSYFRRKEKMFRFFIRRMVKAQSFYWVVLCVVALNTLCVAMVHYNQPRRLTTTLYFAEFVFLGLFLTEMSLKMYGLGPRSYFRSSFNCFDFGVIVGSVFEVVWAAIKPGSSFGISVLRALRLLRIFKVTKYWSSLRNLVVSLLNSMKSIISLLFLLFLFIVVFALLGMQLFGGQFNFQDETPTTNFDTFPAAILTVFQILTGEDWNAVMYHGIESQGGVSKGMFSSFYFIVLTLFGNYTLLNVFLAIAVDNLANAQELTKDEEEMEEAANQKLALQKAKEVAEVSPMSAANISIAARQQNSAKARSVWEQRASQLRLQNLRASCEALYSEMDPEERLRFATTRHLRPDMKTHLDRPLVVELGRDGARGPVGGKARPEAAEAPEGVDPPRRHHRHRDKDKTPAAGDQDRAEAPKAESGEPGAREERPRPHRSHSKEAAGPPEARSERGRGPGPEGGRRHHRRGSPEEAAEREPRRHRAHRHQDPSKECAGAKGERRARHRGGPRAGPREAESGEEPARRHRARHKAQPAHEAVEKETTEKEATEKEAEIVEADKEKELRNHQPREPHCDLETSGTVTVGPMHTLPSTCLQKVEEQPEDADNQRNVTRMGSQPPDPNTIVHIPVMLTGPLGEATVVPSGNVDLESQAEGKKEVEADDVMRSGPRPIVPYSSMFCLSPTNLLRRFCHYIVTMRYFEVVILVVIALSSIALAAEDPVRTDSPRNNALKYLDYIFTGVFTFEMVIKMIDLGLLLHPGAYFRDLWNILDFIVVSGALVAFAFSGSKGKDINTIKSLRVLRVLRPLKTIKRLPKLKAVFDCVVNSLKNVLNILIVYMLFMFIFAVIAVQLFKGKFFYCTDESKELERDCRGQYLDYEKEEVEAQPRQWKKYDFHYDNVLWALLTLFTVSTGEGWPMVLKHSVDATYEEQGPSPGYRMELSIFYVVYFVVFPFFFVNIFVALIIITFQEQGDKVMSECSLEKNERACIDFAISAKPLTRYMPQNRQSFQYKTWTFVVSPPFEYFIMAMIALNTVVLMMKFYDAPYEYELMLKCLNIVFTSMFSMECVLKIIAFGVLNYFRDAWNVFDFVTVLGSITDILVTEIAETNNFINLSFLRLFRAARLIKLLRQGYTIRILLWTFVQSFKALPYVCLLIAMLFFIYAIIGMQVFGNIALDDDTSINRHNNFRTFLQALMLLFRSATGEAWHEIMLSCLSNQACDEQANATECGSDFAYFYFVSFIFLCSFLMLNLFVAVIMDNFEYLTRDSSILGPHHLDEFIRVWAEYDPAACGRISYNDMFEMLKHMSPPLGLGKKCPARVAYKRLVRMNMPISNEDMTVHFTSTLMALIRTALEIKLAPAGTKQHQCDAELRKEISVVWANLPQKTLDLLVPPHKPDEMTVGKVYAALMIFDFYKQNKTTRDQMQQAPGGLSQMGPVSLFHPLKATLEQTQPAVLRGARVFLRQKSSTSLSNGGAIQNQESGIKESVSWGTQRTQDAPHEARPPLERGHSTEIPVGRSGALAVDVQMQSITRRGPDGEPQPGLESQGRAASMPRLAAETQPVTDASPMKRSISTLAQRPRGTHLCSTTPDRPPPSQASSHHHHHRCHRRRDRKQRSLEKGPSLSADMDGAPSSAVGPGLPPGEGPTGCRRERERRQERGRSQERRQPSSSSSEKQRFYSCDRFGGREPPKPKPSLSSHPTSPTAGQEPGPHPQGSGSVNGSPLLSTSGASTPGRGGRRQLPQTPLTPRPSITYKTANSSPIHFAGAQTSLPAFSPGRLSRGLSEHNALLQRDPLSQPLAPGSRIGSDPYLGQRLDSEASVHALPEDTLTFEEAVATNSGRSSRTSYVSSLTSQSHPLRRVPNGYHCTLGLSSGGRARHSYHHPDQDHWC
T2 sequence (Q02410 whole entry): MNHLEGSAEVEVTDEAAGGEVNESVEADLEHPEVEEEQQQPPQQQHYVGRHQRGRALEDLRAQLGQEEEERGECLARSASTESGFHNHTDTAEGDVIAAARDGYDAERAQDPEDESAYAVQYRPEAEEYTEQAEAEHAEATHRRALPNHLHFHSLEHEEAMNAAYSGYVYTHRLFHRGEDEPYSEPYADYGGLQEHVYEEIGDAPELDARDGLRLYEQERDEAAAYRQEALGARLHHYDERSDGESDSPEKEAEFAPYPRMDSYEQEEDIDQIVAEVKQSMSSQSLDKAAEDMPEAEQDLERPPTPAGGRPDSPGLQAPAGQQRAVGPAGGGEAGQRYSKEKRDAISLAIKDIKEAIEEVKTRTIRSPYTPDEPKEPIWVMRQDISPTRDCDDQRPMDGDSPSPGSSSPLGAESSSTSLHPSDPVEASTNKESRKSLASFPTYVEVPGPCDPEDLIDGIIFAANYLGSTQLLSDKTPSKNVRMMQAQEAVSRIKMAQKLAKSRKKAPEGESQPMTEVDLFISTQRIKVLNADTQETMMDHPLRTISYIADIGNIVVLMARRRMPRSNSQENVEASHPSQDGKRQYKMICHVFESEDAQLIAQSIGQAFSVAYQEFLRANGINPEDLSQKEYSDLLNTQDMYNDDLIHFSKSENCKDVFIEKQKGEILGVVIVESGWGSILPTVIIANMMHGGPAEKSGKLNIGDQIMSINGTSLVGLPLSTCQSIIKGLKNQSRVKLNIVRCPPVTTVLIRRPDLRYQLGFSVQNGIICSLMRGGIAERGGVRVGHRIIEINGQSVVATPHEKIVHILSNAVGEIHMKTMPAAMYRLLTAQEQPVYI

[5] = molecular target: T2, Voltage-gated N-type calcium channel alpha-1B subunit/Amyloid beta A4 precursor protein-binding family A member 1; format: protein assay; remark: listed apart in the source
[6] = molecular target: T3, Apoptotic protease-activating factor 1 (Homo sapiens, UniProt O14727); assay: activation of Apaf-1 mediated apoptosis – fluorescent, uHTS hits, dose response (AID 588554); format: functional
T3 sequence (O14727 whole entry): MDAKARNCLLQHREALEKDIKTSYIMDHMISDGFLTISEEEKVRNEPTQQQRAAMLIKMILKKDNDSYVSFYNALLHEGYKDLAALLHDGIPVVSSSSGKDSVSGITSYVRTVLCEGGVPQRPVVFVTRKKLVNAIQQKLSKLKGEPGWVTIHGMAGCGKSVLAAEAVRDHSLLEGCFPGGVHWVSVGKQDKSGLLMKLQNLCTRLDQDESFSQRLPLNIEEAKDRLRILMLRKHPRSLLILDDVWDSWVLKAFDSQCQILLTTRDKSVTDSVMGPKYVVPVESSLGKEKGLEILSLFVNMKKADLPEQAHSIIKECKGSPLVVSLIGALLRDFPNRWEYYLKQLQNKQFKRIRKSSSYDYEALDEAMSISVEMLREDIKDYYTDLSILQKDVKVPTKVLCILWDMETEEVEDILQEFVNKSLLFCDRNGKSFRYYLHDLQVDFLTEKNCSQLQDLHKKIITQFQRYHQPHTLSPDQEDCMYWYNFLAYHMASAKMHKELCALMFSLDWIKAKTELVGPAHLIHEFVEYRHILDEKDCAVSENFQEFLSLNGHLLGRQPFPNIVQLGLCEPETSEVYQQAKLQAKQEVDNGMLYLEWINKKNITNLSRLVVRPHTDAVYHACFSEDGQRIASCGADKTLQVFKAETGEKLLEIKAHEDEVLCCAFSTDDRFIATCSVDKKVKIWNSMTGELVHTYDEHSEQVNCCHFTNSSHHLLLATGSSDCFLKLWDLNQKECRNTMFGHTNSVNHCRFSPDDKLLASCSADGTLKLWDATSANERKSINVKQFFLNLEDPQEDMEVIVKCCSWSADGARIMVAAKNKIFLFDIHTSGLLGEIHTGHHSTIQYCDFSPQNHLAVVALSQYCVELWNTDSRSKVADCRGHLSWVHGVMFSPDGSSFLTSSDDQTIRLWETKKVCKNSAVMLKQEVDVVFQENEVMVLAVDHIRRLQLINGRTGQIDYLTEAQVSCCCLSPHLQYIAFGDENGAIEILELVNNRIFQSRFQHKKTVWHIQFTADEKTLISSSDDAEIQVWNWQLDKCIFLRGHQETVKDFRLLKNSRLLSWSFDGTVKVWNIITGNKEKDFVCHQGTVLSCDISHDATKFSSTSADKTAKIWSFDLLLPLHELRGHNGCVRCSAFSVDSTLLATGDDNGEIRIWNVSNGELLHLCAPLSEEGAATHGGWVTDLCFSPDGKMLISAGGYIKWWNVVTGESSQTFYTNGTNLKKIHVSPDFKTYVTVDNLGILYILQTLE

[7] = molecular target: T4, Small ubiquitin-related modifier 1 (Homo sapiens, UniProt P63165); assay: inhibitors of SUMO1 peptide binding, dose response, biochemical, fluorescence polarization, uHTS hits (AID 624382); format: functional; conditions: read-out: IC50_Mean
T4 sequence (P63165 whole entry): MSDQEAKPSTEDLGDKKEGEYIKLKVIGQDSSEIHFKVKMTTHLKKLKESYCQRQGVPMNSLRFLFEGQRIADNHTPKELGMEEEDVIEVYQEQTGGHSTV

[8] = molecular target: T4, Small ubiquitin-related modifier 1; assay: inhibitors of SUMO1 partner interactions, dose response, biochemical, FRET (AID 624383); format: functional; conditions: read-out: IC50_Mean

## Cn1c(=O)c2nc(SCc3ccccn3)[nH]c2n(C)c1=S
[1]
  AC50: 0.0126 µM (inconclusive)
[2]
  AC50: inconclusive

## COC(=O)Cn1nc(-c2ccc(Cl)cc2)c2ccccc21
[3]
  AC50: 2.16 µM (active)

## N#Cc1nc(-c2ccc(OCc3ccc(Cl)cc3)cc2)oc1N1CCC(C(N)=O)CC1
[4]
  IC50: 3.78 µM (active)
[5]
  IC50: 47.3 µM (active)
[6]
  EC50: 7.04 µM (active)
[7]
  IC50: > 66.6 µM (inactive)
[8]
  IC50: 8.79 µM (active)
